Results from PMC10254045, “Elaboration of the Effective Multi-Target Therapeutic Platform for the Treatment of Alzheimer’s Disease Based on Novel Monoterpene-Derived Hydroxamic Acids” (International Journal of Molecular Sciences, 2023).

How the values were obtained:
[1] = molecular target: T1, HDAC6 (Homo sapiens, UniProt Q9UBN7); assay: Fluorimetric measurement of HDAC6 activity (FLUOR DE LYS kit); format: biochemical; conditions: for IC50: Table 1, read-out: HDAC6-Inhibitory Effect, IC50; for ability to inhibit the enzymatic activity of HDAC6: in words
T1 construct: purchased Enzo Life Sciences
T1 sequence (Q9UBN7 1-1215): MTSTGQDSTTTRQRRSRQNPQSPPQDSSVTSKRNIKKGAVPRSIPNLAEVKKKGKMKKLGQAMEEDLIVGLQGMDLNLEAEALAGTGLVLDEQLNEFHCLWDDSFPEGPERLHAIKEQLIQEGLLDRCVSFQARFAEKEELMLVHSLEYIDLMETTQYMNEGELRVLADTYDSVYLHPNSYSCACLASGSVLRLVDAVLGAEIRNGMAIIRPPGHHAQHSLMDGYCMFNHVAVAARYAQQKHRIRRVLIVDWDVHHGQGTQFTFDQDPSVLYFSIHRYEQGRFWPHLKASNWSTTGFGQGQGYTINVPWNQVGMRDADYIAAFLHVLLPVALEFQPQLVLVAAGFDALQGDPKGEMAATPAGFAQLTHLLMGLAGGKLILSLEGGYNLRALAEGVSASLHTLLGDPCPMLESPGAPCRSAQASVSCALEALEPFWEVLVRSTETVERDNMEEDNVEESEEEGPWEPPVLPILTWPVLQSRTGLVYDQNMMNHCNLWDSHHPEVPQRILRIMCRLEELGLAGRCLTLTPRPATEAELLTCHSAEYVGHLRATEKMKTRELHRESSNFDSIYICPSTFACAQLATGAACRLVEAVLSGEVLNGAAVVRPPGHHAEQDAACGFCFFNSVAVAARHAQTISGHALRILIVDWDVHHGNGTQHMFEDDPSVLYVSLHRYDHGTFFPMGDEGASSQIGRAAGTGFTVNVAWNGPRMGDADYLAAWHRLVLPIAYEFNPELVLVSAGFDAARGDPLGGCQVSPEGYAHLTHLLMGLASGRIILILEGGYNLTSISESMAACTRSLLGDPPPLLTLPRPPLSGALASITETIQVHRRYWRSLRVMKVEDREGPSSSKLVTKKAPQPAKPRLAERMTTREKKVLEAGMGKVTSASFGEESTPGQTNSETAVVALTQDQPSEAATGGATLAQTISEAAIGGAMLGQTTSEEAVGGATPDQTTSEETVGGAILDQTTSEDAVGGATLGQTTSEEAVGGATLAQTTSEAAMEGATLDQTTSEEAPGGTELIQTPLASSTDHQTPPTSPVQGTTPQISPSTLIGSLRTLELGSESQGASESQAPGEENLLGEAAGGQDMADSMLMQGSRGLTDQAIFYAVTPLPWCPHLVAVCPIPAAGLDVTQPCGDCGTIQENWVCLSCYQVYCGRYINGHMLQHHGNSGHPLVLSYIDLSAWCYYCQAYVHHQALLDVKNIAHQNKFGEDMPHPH

[2] = DPPH radical scavenging activity; conditions: Trolox equivalent; compounds and Trolox 100 µM
Excerpt: (§1) DPPH is a stable chromogen radical, which is widely used to assess the antioxidant activity of biological objects, in particular when searching for potential therapeutic agents used to maintain the redox balance in the body and treat pathologies associated with the action of free radicals. In turn, the oxygen radical absorbance capacity (ORAC) analysis is based on the removal by potential antioxidants of peroxyl radicals generated by AAPH (2,2’-axobis-2-methyl-propanimidamide, dihydrochloride), preventing the degradation of the fluorescein probe.
The measurement of the antiradical activity of synthesized hydroxamic acids was carried out using the method described in [150]. The studied compounds were introduced into the wells of a 96-well black tablet (the final concentration was 100 microns), after which a freshly prepared solution of 2,2-diphenyl-1-picrylhydrazyl (Sigma Aldrich, St. Louis, Missouri, USA) was added. After the incubation time had elapsed, the DPPH radical-scavenging activity was measured using a multifunctional Cytation™3 tablet analyzer (BioTek Instruments, Inc., Winooski, VT, USA) at λ = 517 nm by the difference in the reduction of the DPPH radical peak between control samples containing an equivalent volume of solvent and samples with the substances under study.

[3] = Oxygen radical absorbance capacity (ORAC); conditions: Trolox equivalent; compounds and Trolox 100 µM, AAPH 12 mM
Excerpt: as §1
The analysis of the absorption capacity of oxygen radicals was performed as described in [151], with some modifications. Trolox (Sigma Aldrich, St. Louis, MI, USA) was used as a standard antioxidant. The studied compounds were introduced into the holes of a 96-hole black tablet with a transparent bottom with Trolox (25 µL; the final concentration was 100 µM) and fluorescein (150 µL; the final concentration was 80 nM, Sigma Aldrich, St. Louis, MI, USA). The resulting mixture was shaken and incubated for 30 min at 37 °C. After a 30-min incubation period, a solution of 2,2’-azobis (2-amidinopropane) dihydrochloride (AAPH) (25 µL; final concentration of 12 mM, Sigma Aldrich, St. Louis, MI, USA) was quickly introduced into all wells of the tablet. The tablet was immediately placed in a multifunctional tablet analyzer Cytation™ 3 (BioTek Instruments, Inc., Winooski, VT, USA). The fluorescence intensity was recorded for 300 min at λex = 480 nm, λem = 520 nm with an interval of every 5 min. In the same experiment, calibration solutions for the reference antioxidant Trolox were used to confirm the validity of the use of this method (0, 6.25, 12.5, 25, 50 and 100 µM).

[4] = Cell viability, MTT test; format: cell-based; conditions: human, SH-SY5Y neuroblastoma cells, 24-h exposure, read-out: IC50 cytotoxic action
Procedure: The culture of human neuroblastoma cells (defined as SH-SY5Y) was cultured in DMEM with the addition of embryonic bovine serum (10%), 2 mM glutamine (DiaM, Moscow, Russia) and penicillin-streptomycin (100 U/Ml–100 µg/mL, PanEco, Moscow, Russia) in conditions of 5% CO2 in the air at 37 °C. Upon reaching 80% confluence, cells in the amount of 1 × 10^4 were placed in 96-well transparent plates and incubated under the same conditions for 24 h. After the incubation time, the cells were exposed to a 24-h exposure to various concentrations of hydroxamic acids dissolved in dimethyl sulfoxide (range from 1 to 100 µM). An equivalent volume of solvent was used as a control (final DMSO content = 1%).
Cell survival analysis was performed using MTT test. To do this, 3-(4,5-dimethylthiazol-2-yl)-2,5-diphenyltetrazolium bromide (MTT, 5 mg/mL, DiaM, Moscow, Russia) was introduced into all wells and incubated at 37 °C for 2 h to restore metabolically active cells of the yellow tetrazolium salt MTT to purple formazane crystals. The resulting formazane was then re-suspended in 200 µL DMSO per well. The optical density was recorded using a multifunctional Cytation™3 flatbed analyzer (BioTek Instruments, Inc., Winooski, VT, USA) at λ = 530 nm.

[5] = molecular target: T2, β-amyloid peptide 1-42 (Aβ1-42) (Homo sapiens, UniProt P05067); assay: Thioflavin T fluorescent analysis of Aβ1-42 aggregation; format: biochemical; conditions: 48 h, compounds 100 µM, Thioflavin T 10 µM, 48 h registration; read-out: prevention of the aggregation of Aβ1-42
T2 construct: the pathological form of β-amyloid peptide 1-42 (Sigma Aldrich); purchased Sigma Aldrich
T2 sequence (P05067 672-713 limits assumed): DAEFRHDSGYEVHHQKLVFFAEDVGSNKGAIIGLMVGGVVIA
Excerpt: The aggregation process of β-amyloid peptide 1-42 (Aβ1-42), caused by hydrophobic interactions of peptide monomers and, as a consequence, the formation of the most toxic polymorphic structure-oligomeric fragments of Aβ, was detected using the fluorescent dye Thioflavin T (Figure 4a). This method is the most widely used for selective staining and the identification of amyloid aggregates, which is confirmed by a large number of works. Fluorescence analysis using Thioflavin T made it possible to monitor the aggregation process of the pathological form of β-amyloid peptide 1-42 (Sigma Aldrich, St. Louis, MI, USA). The experimental protocol was carried out similarly to that described in [58] with some modifications. The registration of changes in the fluorescence of thioflavin T (10 µM, Sigma Aldrich, St. Louis, MI, USA) was performed on a multifunctional tablet analyzer Cytation™3 (BioTek Instruments, Inc., Winooski, VT, USA) at λex = 450 nm, λem = 480 nm. The fluorescence intensity of the solution without Aβ1-42 was subtracted from the fluorescence values of solutions containing protein, due to the need to subtract the background fluorescence.

Structure (SMILES) | IC50 [1] | ability to inhibit the enzymatic activity of HDAC6 [1] | DPPH value (TE) [2] | ORAC value (TE) [3] | IC50 at 24 h [4] | inhibition at 100 µM [5] | melting point
CC1=CC[C@@H](CC(=O)NO)C1(C)C [(+)-13, (S)-N-Hydroxy-2-(2,2,3-trimethylcyclopent-3-en-1-yl)acetamide] | > 100 µM | no significant ability | 0.26 TE | 0.94 TE | > 100 µM | – | –
CC1(C)[C@@H]2CC=C(C(=O)NO)[C@H]1C2 [(+)-19, (1S,5R)-N-Hydroxy-6,6-dimethylbicyclo [3.1.1]hept-2-ene-2-carboxamide] | > 100 µM | no significant ability | 0.50 TE | 1.02 TE | > 100 µM | – | –
CC1=CC[C@H](CC(=O)NO)C1(C)C [(-)-13, (R)-N-Hydroxy-2-(2,2,3-trimethylcyclopent-3-en-1-yl)acetamide] | > 100 µM | no significant ability | 0.39 TE | 0.93 TE | > 100 µM | – | –
CC1(C)[C@H]2CC=C(C(=O)NO)[C@@H]1C2 [(-)-19, (1R,5S)-N-Hydroxy-6,6-dimethylbicyclo [3.1.1]hept-2-ene-2-carboxamide] | > 100 µM | no significant ability | 0.15 TE | 0.85 TE | > 100 µM | – | –
CC(CCCC(C)(C)O)CC(=O)NO (stereo not shown) [Compound 5, N,7-dihydroxy-3,7-dimethyloctanamide] | > 100 µM | no significant ability | 0.17 TE | 0.88 TE | > 100 µM | – | –
CC(C)CCCC(C)CC(=O)NO (stereo not shown) [Compound 8, N-Hydroxy-3,7-dimethyloctanamide] | > 100 µM | no significant ability | 0.36 TE | 0.83 TE | > 100 µM | – | –
CC(C)=CCCC(C)CC(=O)NO (stereo not shown) [Compound 10, N-Hydroxy-3,7-dimethyloct-6-enamide] | > 100 µM | no significant ability | 0.19 TE | 0.84 TE | > 100 µM | – | –
C=C(C)[C@@H]1CC=C(C(=O)NO)CC1 [Compound 16, (S)-N-Hydroxy-4-(prop-1-en-2-yl)cyclohex-1-enecarboxamide] | 87.4 ± 2.33 µM | no significant ability | 0.23 TE | 0.87 TE | > 100 µM | – | –
C=C(C)[C@@H]1CC=C(CNC(=O)CCCCCCC(=O)NO)CC1 [Compound 30, (S)-N1-Hydroxy-N8-((4-(prop-1-en-2-yl)cyclohex-1-en-1-yl)methyl)octanediamide] | 0.56 ± 0.01 µM | – | 0.25 TE | 0.87 TE | > 100 µM | ≤ 40% | 113.5 to 116 °C
C=C(C)[C@@H]1CC=C(CNC(=O)CCCCCCCC(=O)NO)CC1 [Compound 31, (S)-N1-hydroxy-N9-((4-(prop-1-en-2-yl)cyclohex-1-en-1-yl)methyl)nonanediamide] | 0.74 ± 0.02 µM | – | 0.30 TE | 0.82 TE | 89.4 ± 3.92 µM | ≤ 40% | 110.8 °C
CC(C)c1ccc(CNC(=O)/C=C/c2ccc(C(=O)NO)cc2)cc1 [Compound 35b, (E)-N-hydroxy-4-(3-((4-isopropylbenzyl)amino)-3-oxoprop-1-en-1-yl)benzamide] | 8.23 ± 0.4 µM | – | 0.50 TE | 1.00 TE | > 100 µM | 59.9% | 187.4 to 189.7 °C
